This note sets out measurements from ChEMBL document CHEMBL1132521, “Synthesis and hypoglycemic effect of chrysin derivatives” (Bioorg Med Chem Lett, 1999).

Experiment [1] relates to Mus musculus. Nature of the experiment: In vivo hypoglycemic activity after administration (42 mg/kg) in mice on day 0 was determined. It is filed as functional.
In experiment [2] the test system is Rattus norvegicus. Description: Body weight was determined in rat after oral administration of 500 mg/kg on day 0. It is filed as functional.
Experiment [3] deals with Rattus norvegicus. Description: Daily water consumption was determined in rat after oral administration of 500 mg/kg. It is filed as functional.
Experiment [4] deals with Mus musculus. Nature of the experiment: Daily food consumption was determined in mouse after oral administration of 5 mg/kg. It is filed as functional.
Experiment [5] deals with Mus musculus. Description: Body weight was determined in mouse after oral administration of 5 mg/kg on day 0. It is filed as functional.
Experiment [6] deals with Mus musculus. Nature of the experiment: Abnormal symptoms was determined in mouse after oral administration of 20 mg/kg; - sign indicates abnormal symptoms in treated mouse. It is filed as functional, organism-based. Further details: dose 20 mg/kg.
In experiment [7] the test system is Rattus norvegicus. Description: Abnormal symptoms was determined in rat after oral administration of 500 mg/kg; - sign indicates abnormal symptoms in treated mouse. Details: dose 500 mg/kg. It is filed as functional, organism-based.
Experiment [8] deals with Mus musculus. Description: Body weight was determined in mouse after oral administration of 20 mg/kg on day 0. It is filed as functional.
The test system of experiment [9] is Mus musculus. Description: In vivo hypoglycemic activity after administration (42 mg/kg) in mice on day 7 was determined. It is filed as functional.
The test system of experiment [10] is Mus musculus. Nature of the experiment: Daily water consumption was determined in mouse after oral administration of 500 mg/kg. It is filed as functional.
Experiment [11] relates to Mus musculus. Nature of the experiment: Abnormal symptoms was determined in mouse after oral administration of 500 mg/kg; - sign indicates abnormal symptoms in treated mouse. It is filed as functional, organism-based. Details: dose 500 mg/kg.
Experiment [12] concerns Mus musculus. Description: Daily water consumption was determined in mouse after oral administration of 100 mg/kg. It is filed as functional.
For experiment [13], the system named is Rattus norvegicus. Nature of the experiment: Kidney weight was determined in rat after oral administration of 500 mg/kg. It is filed as functional.
Experiment [14] relates to Rattus norvegicus. Nature of the experiment: Liver weight was determined in rat after oral administration of 500 mg/kg. Details: unit not given beside the values. It is filed as functional.
Experiment [15] relates to Rattus norvegicus. Nature of the experiment: Daily food consumption was determined in rat after oral administration of 500 mg/kg. It is filed as functional.
Experiment [16] concerns Rattus norvegicus. Description: Spleen weight was determined in rat after oral administration of 500 mg/kg. It is filed as functional. Further details: unit not given beside the values.
Experiment [17] relates to Mus musculus. Description: Body weight was determined in mouse after oral administration of 500 mg/kg on day 7. It is filed as functional.
Experiment [18] deals with Mus musculus. Nature of the experiment: Abnormal symptoms was determined in mouse after oral administration of 5 mg/kg; - sign indicates abnormal symptoms in treated mouse. Further details: dose 5 mg/kg. It is filed as functional, organism-based.
For experiment [19], the system named is Mus musculus. Nature of the experiment: Body weight was determined in mouse after oral administration of 100 mg/kg on day 7. It is filed as functional.
In experiment [20] the test system is Mus musculus. Nature of the experiment: Body weight was determined in mouse after oral administration of 5 mg/kg on day 7. It is filed as functional.
Experiment [21] relates to Mus musculus. Nature of the experiment: Body weight was determined in mouse after oral administration of 100 mg/kg on day 0. It is filed as functional.
The subject of experiment [22] is Mus musculus. Description: Abnormal symptoms was determined in mouse after oral administration of 100 mg/kg; - sign indicates abnormal symptoms in treated mouse. It is filed as functional, organism-based. Details: dose 100 mg/kg.
Experiment [23] concerns Mus musculus. Nature of the experiment: Daily food consumption was determined in mouse after oral administration of 100 mg/kg. It is filed as functional.
Experiment [24] has as its system Mus musculus. Nature of the experiment: Body weight was determined in mouse after oral administration of 500 mg/kg on day 0. It is filed as functional.
A short description of experiment [25]: Ratio of hypoglycemic activity in mice was tested on day 7. It is filed as functional.
Experiment [26] deals with Rattus norvegicus. Description: Body weight was determined in rat after oral administration of 500 mg/kg on day 7. It is filed as functional.
Experiment [27] relates to Mus musculus. Nature of the experiment: Daily food consumption was determined in mouse after oral administration of 20 mg/kg. It is filed as functional.
Experiment [28] relates to Rattus norvegicus. Description: Lung weight was determined in rat after oral administration of 500 mg/kg. It is filed as functional. Further details: unit not given beside the values.
Experiment [29] concerns Mus musculus. Nature of the experiment: Daily water consumption was determined in mouse after oral administration of 5 mg/kg. It is filed as functional.
Experiment [30] has as its system Mus musculus. Nature of the experiment: Body weight was determined in mouse after oral administration of 20 mg/kg on day 7. It is filed as functional.
Experiment [31] has as its system Mus musculus. Description: Daily food consumption was determined in mouse after oral administration of 500 mg/kg. It is filed as functional.
The test system of experiment [32] is Mus musculus. Nature of the experiment: Daily water consumption was determined in mouse after oral administration of 20 mg/kg. It is filed as functional.
For experiment [33], the system named is Mus musculus. Description: In vivo hypoglycemic activity after administration (43 mg/kg) in mice on day 0 was determined. It is filed as functional.
Experiment [34] has as its system Mus musculus. Description: In vivo hypoglycemic activity after administration (43 mg/kg) in mice on day 7 was determined. It is filed as functional.

In the case of `CCCOc1cc(OCCC)c2c(=O)cc(-c3ccccc3)oc2c1`, the values for the Blood glucose with Mus musculus [1] and with Mus musculus [9] were 448.3 mg/dL and 287 mg/dL, respectively. The Body weight in the experiment on Rattus norvegicus [2] is listed as 235.8; with Mus musculus [5], 22.3; in the experiment on Mus musculus [8] it was 25.3; in the experiment on Mus musculus [17] it was 29.5; in the experiment on Mus musculus [19], 32.1; with Mus musculus [20] it was 28.2. In addition, the Body weight is listed as 25.2 with Mus musculus [21], 22.7 in the experiment with Mus musculus [24], 300.8 in the experiment with Rattus norvegicus [26] and 31.9 in the experiment with Mus musculus [30]. Further, the Water consumption in the experiment on Rattus norvegicus [3] came out at 218.5 mL; with Mus musculus [10] it was 81.75 mL; in the experiment with Mus musculus [12] it was 81.75 mL; with Mus musculus [29], 80 mL; with Mus musculus [32] it was 80.92 mL. For the same compound, the Food intake stood at 48.09 g in the experiment on Mus musculus [4]; 115.41 g in the experiment on Rattus norvegicus [15]; 49.77 g in the experiment on Mus musculus [23]; 53.2 g in the experiment on Mus musculus [27]; 49.87 g with Mus musculus [31]. Further, the Activity entry in the experiment with Mus musculus [6], in the experiment with Rattus norvegicus [7], in the experiment on Mus musculus [11], in the experiment with Mus musculus [18] and in the experiment on Mus musculus [22] was “abnormal symptoms in treated mouse” in each case. In addition, the Organ weight with Rattus norvegicus [13] amounted to 0.97; in the experiment on Rattus norvegicus [14], 9.64; in the experiment with Rattus norvegicus [16] it was 0.61; in the experiment on Rattus norvegicus [28] it was 1.23. Moreover, the Ratio in experiment [25] came out at 64.

With `CC(=O)Oc1cc(OC(C)=O)c2c(=O)cc(-c3ccccc3)oc2c1` [CHRYSIN DIACETATE], the Blood glucose worked out at 472 mg/dL with Mus musculus [33] and 341.5 mg/dL in the experiment with Mus musculus [34]. Moreover, the Ratio in experiment [25] was 72.4.

As to `CCCCOc1cc(OCCCC)c2c(=O)cc(-c3ccccc3)oc2c1`, the Blood glucose in the experiment with Mus musculus [33] is 454.4 mg/dL; in the experiment on Mus musculus [34] it was 405.7 mg/dL. For the same compound, the Ratio in [25] is given as 89.3.
